Measurements taken from US20230310377A1, “METHODS OF TREATING LYSOSOMAL STORAGE DISEASES AND METHODS RELATED THERETO” (RECURSION PHARMACEUTICALS, INC., priority 2020, published 2023).

Legend:
Type in all cases: cell-based
[1] = test system: Sandhoff (HEXB) disease and Tay-Sachs (HEXA) disease patient fibroblasts; assay: GM2 ganglioside accumulation (immunofluorescence) in Sandhoff and Tay-Sachs patient fibroblasts; conditions: Homo sapiens, Fibroblast
Description: (§1) Healthy, Sandhoff (HEXB) disease, and Tay-Sachs (HEXA) disease patient fibroblasts were plated and treated with ruboxistaurin mesylate twice over 17 days. At day 0 cells were seeded. On day 5 the media was changed and initial dose of the compound was delivered. On day 10 the media was changed again and the second dose of the compound was delivered. On day 17 the cells were fixed, immunoflourescence-labeled, and imaged for GM2 (see FIG. 1). […] FIGS. 2A-1 and 3A depict the dose response for two separate experiments. FIGS. 2B-1 and 3B depict mean fluorescence or mean aggregate count for each experiment±SEM of technical replicates, combining 3-5 patient lines for each group. n=12-40 images from two well replicates imaged at 4-sites per well for each line at each dose. Data in each panel represents n=1 experiment performed. FIGS. 2C and 3C depict nuclei per image from the same image sets.
(§2) The same experiment was performed for each of sotrastaurin, enzastaurin, LY2090314, AZD1080, and AZD2858. FIG. 2A-2 depicts the dose response for sotrastaurin. FIG. 2A-3 depicts the dose response for enzastaurin.
EC50 calculations were based on GM2 aggregate counts (not mean fluorescence).
The leftmost concentration in all graphs is DMSO control.

[2] = test system: Tay-Sachs (HEXA) disease patient fibroblasts; assay: GM2 ganglioside accumulation in Tay-Sachs (HEXA) patient fibroblasts; conditions: Homo sapiens, Fibroblast, read-out: GM2 ganglioside ED50 for HEXA
Description: as §1, §2

[3] = test system: Sandhoff (HEXB) disease patient fibroblasts; assay: GM2 ganglioside accumulation in Sandhoff (HEXB) patient fibroblasts; conditions: Homo sapiens, Fibroblast, read-out: GM2 ganglioside ED50 for HEXB
Description: as §1, §2

[4] = test system: Sandhoff (HEXB) disease and Tay-Sachs (HEXA) disease patient fibroblasts; assay: Mean cytoplasmic autofluorescence in patient fibroblasts; conditions: Homo sapiens, Fibroblast, experimentally determined, read-out: autofluorescence ED50
Description: as §1
FIGS. 2D-1 and 2D-2 depict mean cytoplasmic autofluorescence for ruboxistaurin and sotrastaurin, respectively.

[5] = GM2 aggregate counts (not mean fluorescence), Expmts 1936 and 1925, read-out: ED50 based on GM2 aggregate counts
[6] = experimentally determined, patient fibroblasts, read-out: GM2 ganglioside ED50

| Structure (SMILES) | EC50 [1, 5] | EC50 [1, 6] | other results |
| --- | --- | --- | --- |
| N#Cc1ccc2[nH]c(O)c(-c3ccc(CN4CCOCC4)cn3)c2c1 [AZD1080] | 1590 nM |  |  |
| Cn1cc(C2=C(c3cn(C4CCN(Cc5ccccn5)CC4)c4ccccc34)C(=O)NC2=O)c2ccccc21 [Enzastaurin] |  |  | EC50 [2]: ~265 nM; EC50 [3]: ~550 nM |
| O=C1NC(=O)C(c2cnc3ccccn23)=C1c1cn2c3c(cc(F)cc13)CN(C(=O)N1CCCCC1)CC2 [LY2090314] | 8.76 nM |  |  |
| CN(C)C[C@@H]1CCn2cc(c3ccccc32)C2=C(C(=O)NC2=O)c2cn(c3ccccc23)CCO1 [Ruboxistaurin, (18S)-18-[(dimethylamino)methyl]-17-oxa-4,14,21-triazahexacyclo[19.6.1.17,14.02,6.08,13.022,27]nonacosa-1(28),2(6),7(29),8,10,12,22,24,26-nonaene-3,5-dione] |  | ~300 nM | EC50 [4]: ~250 nM |
| CN1CCN(c2nc(C3=C(c4c[nH]c5ccccc45)C(=O)NC3=O)c3ccccc3n2)CC1 [Sotrastaurin] |  | ~90 nM |  |
